Experimental data from the supplement of paper PMC10307832.

Experiments:
Assay in all cases: relative viability (nuclei count vs DMSO), 5 days (fraction); higher = more cells survive
Mirin + Trametinib = compound: N=C1NC(=O)/C(=C/c2ccc(O)cc2)S1 [Mirin] + CC(=O)Nc1cccc(-n2c(=O)n(C3CC3)c(=O)c3c(Nc4ccc(I)cc4F)n(C)c(=O)c(C)c32)c1 [Trametinib] (partner 0.02 µM)
In short: (§1)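 One day after seeding in 1536-well plates, lung cancer cell lines were dosed by pin tool. Dosing was either single-drug or a fixed anchor-drug dose plus five library-drug doses (not always all listed) in √10 steps. After 5 days, nuclei were stained in one fix-and-stain step and counted on 4× images, and relative viability is the nuclei count of treated wells over that of vehicle wells, given as the median of duplicate plates.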

Mirin + Palbociclib = compound: N=C1NC(=O)/C(=C/c2ccc(O)cc2)S1 [Mirin] + CC(=O)c1c(C)c2cnc(Nc3ccc(N4CCNCC4)cn3)nc2n(C2CCCC2)c1=O [Palbociclib] (partner 0.5 µM)
In short: as §1

Mirin + Crizotinib = compound: N=C1NC(=O)/C(=C/c2ccc(O)cc2)S1 [Mirin] + C[C@@H](Oc1cc(-c2cnn(C3CCNCC3)c2)cnc1N)c1c(Cl)ccc(F)c1Cl [Crizotinib] (partner 1 µM)
In short: as §1

[1] = compound: CCC1=CN=CN=C1N2CCN(CC2)CC3=NC4=C(N3)C=C(C=C4)C(F)(F)F + CS(=O)(=O)CCNCc1ccc(-c2ccc3ncnc(Nc4ccc(OCc5cccc(F)c5)c(Cl)c4)c3c2)o1 [Lapatinib] (partner 2 µM)
In short: as §1

Row | Cell Line | relative viability (Mirin + Trametinib; first compound 0.25 µM) | relative viability (Mirin + Trametinib; first compound 0.7906 µM) | relative viability (Mirin + Trametinib; first compound 2.5 µM) | relative viability (Mirin + Trametinib; first compound 7.906 µM) | relative viability (Mirin + Trametinib; first compound 25 µM) | relative viability (Mirin + Palbociclib; first compound 0.25 µM) | relative viability (Mirin + Palbociclib; first compound 0.7906 µM) | relative viability (Mirin + Palbociclib; first compound 2.5 µM) | relative viability (Mirin + Palbociclib; first compound 7.906 µM) | relative viability (Mirin + Palbociclib; first compound 25 µM) | relative viability (Mirin + Crizotinib; first compound 0.25 µM) | relative viability (Mirin + Crizotinib; first compound 0.7906 µM) | relative viability (Mirin + Crizotinib; first compound 2.5 µM) | relative viability (Mirin + Crizotinib; first compound 7.906 µM) | relative viability (Mirin + Crizotinib; first compound 25 µM) | relative viability ([1]; first compound 0.04 µM) | relative viability ([1]; first compound 0.1265 µM) | relative viability ([1]; first compound 0.4 µM) | relative viability ([1]; first compound 1.265 µM) | relative viability ([1]; first compound 4 µM)
1 | NCI-H1993 | 0.506 | 0.519 | 0.533 | 0.336 | 0.546 | 0.614 | 0.281 | 0.586 | 0.524 | 0.543 | 0.757 | 0.82 | 0.845 | 0.926 | 0.788 | 0.777 | 0.842 | 0.69 | 0.8 | 0.747
2 | NCI-H2347 | 0.301 | 0.313 | 0.26 | 0.3 | 0.274 | 0.444 | 0.465 | 0.506 | 0.422 | 0.436 | 0.759 | 0.68 | 0.693 | 0.502 | 0.631 | 1.06 | 0.793 | 0.985 | 0.828 | 1.1
3 | NCI-H1437 | 0.597 | 0.46 | 0.555 | 0.519 | 0.399 | 0.358 | 0.32 | 0.292 | 0.318 | 0.327 | 0.9 | 0.936 | 0.744 | 0.898 | 0.774 | 0.777 | 0.668 | 0.74 | 0.635 | 0.641
4 | SK-MES-1 | 0.505 | 0.569 | 0.571 | 0.585 | 0.716 | 0.305 | 0.338 | 0.303 | 0.3 | 0.451 | 1.03 | 1.14 | 1 | 1.04 | 1.19 | 0.487 | 0.432 | 0.749 | 0.43 | 0.428
